Test results published in ChEMBL document CHEMBL4422669, “Bisorbicillinol inhibits Lyn tyrosine kinase for allergic response on RBL-2H3 cells” (Bioorg Med Chem Lett, 2019).
Active and inactive are the calls of the source. No cut-off for these calls is given here.

Assays:
[1] = target: Tyrosine-protein kinase Lyn (Homo sapiens) (UniProt P07948); assay: Competitive inhibition of human LYN expressed in baculovirus infected Sf9 insect cells using […] at 10 uM after 10 mins by Lineweaver-Burk plot analysis
Chain of Tyrosine-protein kinase Lyn (Homo sapiens) (P07948 2-512 limits assumed): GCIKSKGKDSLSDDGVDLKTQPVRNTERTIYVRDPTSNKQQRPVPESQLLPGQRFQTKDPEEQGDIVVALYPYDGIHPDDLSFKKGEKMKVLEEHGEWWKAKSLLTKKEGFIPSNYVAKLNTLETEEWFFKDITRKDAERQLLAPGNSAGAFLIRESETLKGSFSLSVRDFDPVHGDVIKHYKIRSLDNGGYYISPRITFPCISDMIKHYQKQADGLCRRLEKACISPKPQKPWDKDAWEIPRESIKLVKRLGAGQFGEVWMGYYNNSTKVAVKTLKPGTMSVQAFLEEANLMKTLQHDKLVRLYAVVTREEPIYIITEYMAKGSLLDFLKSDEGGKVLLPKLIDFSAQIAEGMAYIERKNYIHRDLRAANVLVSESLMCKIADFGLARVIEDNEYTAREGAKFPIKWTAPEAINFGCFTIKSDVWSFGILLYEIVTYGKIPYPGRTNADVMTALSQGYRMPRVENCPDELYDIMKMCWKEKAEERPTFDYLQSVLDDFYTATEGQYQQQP

[2] = target: Tyrosine-protein kinase Lyn (Homo sapiens) (UniProt P07948); conditions: Sf9, 10 uM
Description: Inhibition of human LYN expressed in baculovirus infected Sf9 insect cells using p-nitrophenol at 10 uM after 10 mins by Lineweaver-Burk plot analysis

RBL-2H3 [3] = assay: (§1) Anti-allergic activity in rat RBL2H3 cells assessed as reduction in mouse anti-DNP IgE-induced beta-hexosaminidase release preincubated for 15 mins followed by mouse anti-DNP IgE-stimulation and measured after 3 hrs by p-nitrophenyl-2-acetamide-2-deoxy-beta-glucopyranoside dye-based colorimetric analysis; format: functional, cell-based
RBL-2H3 [4] = assay: Anti-allergic activity in rat RBL2H3 cells assessed as reduction in mouse anti-DNP IgE-induced TNF-alpha level preincubated for 15 mins followed by mouse anti-DNP IgE-stimulation and measured after 3 hrs by ELISA; format: functional, cell-based
RBL-2H3 [5] = assay: Anti-allergic activity in rat RBL2H3 cells assessed as reduction in mouse anti-DNP IgE-induced IL-4 level preincubated for 15 mins followed by mouse anti-DNP IgE-stimulation and measured after 3 hrs by ELISA; format: functional, cell-based
RBL-2H3 [6] = assay: as §1, with “calcium ionophore-induced” for “mouse anti-DNP IgE-induced”, “calcium ionophore-stimulation” for “mouse anti-DNP IgE-stimulation”; format: functional, cell-based
RBL-2H3 [7] = assay: Anti-allergic activity in rat RBL2H3 cells assessed as reduction in calcium ionophore-induced TNF-alpha level preincubated for 15 mins followed by calcium ionophore stimulation and measured after 3 hrs by ELISA; format: functional, cell-based
RBL-2H3 [8] = assay: Anti-allergic activity in rat RBL2H3 cells assessed as reduction in calcium ionophore-induced IL-4 level preincubated for 15 mins followed by calcium ionophore stimulation and measured after 3 hrs by ELISA; format: functional, cell-based
RBL-2H3 [9] = assay: Cytotoxicity in rat RBL2H3 cells assessed as LDH release; format: cell-based; set-up: concentration or dose not given beside the values
[10] = target: Tyrosine-protein kinase Lyn (Rattus norvegicus) (UniProt Q07014); assay: Inhibition of Lyn in rat RBL2H3 cells assessed as reduction in mouse anti-DNP IgE-induced Syk phosphorylation level at 10 uM preincubated for 15 mins followed by mouse anti-DNP IgE stimulation and measured after 3 hrs by Western blot analysis; format: cell-based
Chain of Tyrosine-protein kinase Lyn (Rattus norvegicus) (Q07014 whole entry): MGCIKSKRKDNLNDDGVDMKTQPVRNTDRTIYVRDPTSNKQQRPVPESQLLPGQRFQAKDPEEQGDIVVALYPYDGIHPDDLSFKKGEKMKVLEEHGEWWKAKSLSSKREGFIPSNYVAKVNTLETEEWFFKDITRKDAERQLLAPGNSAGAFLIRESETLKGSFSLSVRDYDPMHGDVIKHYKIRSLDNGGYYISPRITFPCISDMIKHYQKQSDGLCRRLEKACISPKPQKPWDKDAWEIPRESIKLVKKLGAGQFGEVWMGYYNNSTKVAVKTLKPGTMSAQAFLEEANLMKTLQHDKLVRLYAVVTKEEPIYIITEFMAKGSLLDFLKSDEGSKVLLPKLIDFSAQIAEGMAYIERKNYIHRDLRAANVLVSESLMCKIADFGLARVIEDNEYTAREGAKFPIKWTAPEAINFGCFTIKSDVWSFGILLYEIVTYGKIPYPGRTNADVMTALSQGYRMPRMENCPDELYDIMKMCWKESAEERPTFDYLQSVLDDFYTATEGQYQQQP

[11] = target: Tyrosine-protein kinase Lyn (Rattus norvegicus) (UniProt Q07014); assay: Inhibition of Lyn in rat RBL2H3 cells assessed as reduction in mouse anti-DNP IgE-induced PLCgamma1-phosphorylation level at 10 uM preincubated for 15 mins followed by mouse anti-DNP IgE stimulation and measured after 3 hrs by Western blot analysis; format: cell-based
[12] = target: Tyrosine-protein kinase Lyn (Rattus norvegicus) (UniProt Q07014); assay: Inhibition of mouse anti-DNP IgE-induced Lyn phosphorylation in rat RBL2H3 cells at 10 uM preincubated for 15 mins followed by mouse anti-DNP IgE stimulation and measured after 3 hrs by Western blot analysis; format: cell-based
RBL-2H3 [13] = assay: Effect on mouse anti-DNP IgE-induced Lyn protein expression in rat RBL2H3 cells at 10 uM preincubated for 15 mins followed by mouse anti-DNP IgE stimulation and measured after 3 hrs by Western blot analysis; format: functional, cell-based
RBL-2H3 [14] = assay: Effect on mouse anti-DNP IgE-induced Syk protein expression in rat RBL2H3 cells at 10 uM preincubated for 15 mins followed by mouse anti-DNP IgE stimulation and measured after 3 hrs by Western blot analysis; format: functional, cell-based

Row | Compound | inhibition [1] | inhibition [2] | IC50 (RBL-2H3 [3]) | IC50 (RBL-2H3 [4]) | IC50 (RBL-2H3 [5]) | IC50 (RBL-2H3 [6]) | IC50 (RBL-2H3 [7]) | IC50 (RBL-2H3 [8]) | Activity (RBL-2H3 [9]) | inhibition [10] | inhibition [11] | inhibition [12] | Activity (RBL-2H3 [13]) | Activity (RBL-2H3 [14])
1 | CN[C@@H]1C[C@H]2O[C@@](C)([C@@H]1OC)n1c3ccccc3c3c4c(c5c6ccccc6n2c5c31)C(=O)NC4 | inactive | Active | – | – | – | – | – | – | – | – | – | – | – | –
2 | C/C=C/C=C/C(O)=C1/C(=O)[C@@]2(C)[C@H]3\C(=C(O)/C=C/C=C/C)C(=O)[C@H]4[C@@H]1[C@]1(C)O[C@@]4(O)[C@@]3(C)O[C@@]12O | – | – | 4.5 µM | 17.3 µM | 59.4 µM | < 100 µM | < 100 µM | 17.9 µM | < 5% | – | – | – | – | –
3 | C/C=C/C=C/C(=O)[C@]12C(=O)C(C)=C(O)[C@@](C)(O)[C@H]1[C@H]1\C(=C(O)/C=C/C=C/C)C(=O)[C@]2(C)C(=O)[C@@]1(C)O [BISORBICILLINOL] | Active | – | 2.8 µM | 2.9 µM | 2.8 µM | 53.6 µM | 63.8 µM | 4.9 µM | < 5% | Active | Active | inactive | inactive | inactive
4 | C/C=C/C=C/C(=O)c1cc(C)c(O)c(C)c1O | – | – | 26.5 µM | – | – | < 100 µM | < 100 µM | – | < 5% | – | – | – | – | –
5 | C/C=C/C=C/C(=O)C1=C[C@](C)(OC(C)=O)C(=O)C(C)=C1O | – | – | 4.8 µM | 35.6 µM | 8.5 µM | < 100 µM | < 100 µM | 27.1 µM | < 5% | – | – | – | – | –
6 | C/C=C/C=C/C(=O)C1=C[C@@]2(C)[C@H]3C(C(=O)/C=C/C=C/C)=C(O)C(C)=C(O)[C@@]3(C)O[C@@]2(O)[C@@](C)(O)C1=O [BISVERTINOLONE] | – | – | 9.1 µM | 40.8 µM | 7.7 µM | < 100 µM | < 100 µM | 7.3 µM | < 5% | – | – | – | – | –
7 | C/C=C/C=C/C(O)=C1/C(=O)[C@@]2(C)[C@H]3\C(=C(O)/C=C/C=C/C)C(=O)[C@@]4(C)[C@@H]1[C@]1(C)O[C@@]4(O)[C@@]3(C)O[C@@]12O | – | – | 18.3 µM | 29.6 µM | 6.9 µM | < 100 µM | 23.2 µM | 9.1 µM | < 5% | – | – | – | – | –
